Test results from patent US20060079453A1, “Hla binding peptides and their uses” (priority 2002, published 2006).
Where two headings read alike, the source gives them in different places. No end group written: not given here.

Tests used:
Assay in all cases: biochemical
Format in all cases: binding
HLA-DR DRB1*1101 (DR11) = HLA-DR DRB1*1101 (DR11) (Homo sapiens, UniProt P01903+P01911, A100R/A169T/A87E/I96F/K41T/L162R/M171V/P40S/Q125H/Q178H/Q39Y/Q99D/R42S/S66Y/T262R/V115G/W38E)
HLA-DR DRB1*1302 (DR13) = HLA-DR DRB1*1302 (DR13) (Homo sapiens, UniProt P01903+P01911, A100E/A169T/K41T/L162R/M171V/P40S/Q125H/Q178H/Q39Y/Q99D/R42S/S66N/T262R/V115G/W38E/Y61H)
Sequence of HLA-DR DRB1*1302 (DR13) (P01903 26-254 limits assumed, other chains not shown): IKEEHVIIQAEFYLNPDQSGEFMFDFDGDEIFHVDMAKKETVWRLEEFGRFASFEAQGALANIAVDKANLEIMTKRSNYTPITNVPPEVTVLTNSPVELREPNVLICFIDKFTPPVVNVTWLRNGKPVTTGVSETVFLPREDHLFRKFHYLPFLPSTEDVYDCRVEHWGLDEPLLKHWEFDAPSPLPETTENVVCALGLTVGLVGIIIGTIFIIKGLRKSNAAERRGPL

HLA-DR DRB3*0101 (DR52) = HLA-DR DRB3*0101 (DR52) (Homo sapiens, UniProt P01903+P79483)
HLA-DR DRB4*0101 (DR53) = HLA-DR DRB4*0101 (DR53) (Homo sapiens, UniProt P01903+P13762, G164S)
HLA-DR DRB5*0101 (DR51) = HLA-DR DRB5*0101 (DR51) (Homo sapiens, UniProt P01903+Q30154)
HLA-DR DRB1*1501 (DR15) = HLA-DR DRB1*1501 (DR15) (Homo sapiens, UniProt P01903+P01911)
HLA-DR DRB1*0301 (DR3) = HLA-DR DRB1*0301 (DR3) (Homo sapiens, UniProt P01903+P01911, A100K/A102G/A103R/A169T/F55Y/I96L/K41T/L162R/M171V/P40S/Q125H/Q178H/Q39Y/R42S/S66N/T106N/T262R/W38E/Y61H)
Sequence of HLA-DR DRB1*0301 (DR3) (P01903 26-254 limits assumed, other chains not shown): as above

HLA-DR DRB1*0401 (DR4) = HLA-DR DRB1*0401 (DR4) (Homo sapiens, UniProt P01903+P01911, A100K/A169T/F76Y/I96L/K127E/L162R/M171V/N62H/P40V/Q125Y/R42H/S133A/S149N/S66Y/V115G/V209L/W38E); conditions: DRB1 *0401
HLA-DR DRB1*0701 (DR7) = HLA-DR DRB1*0701 (DR7) (Homo sapiens, UniProt P01903+P01911, A100R/A102G/A103Q/D57E/D86V/E43K/F76Y/K127E/L162R/M171V/P40G/Q125H/Q99D/R33Q/R42Y/R54Q/S133A/S66F/T210M/V115G/Y107V/Y59L/Y89S); conditions: DRB1 *0701

Sequence of HLA-DR DRB1*1101 (DR11) (P01903 26-254 limits assumed, other chains not shown): as above

Molecule	IC50 (HLA-DR DRB1*1101 (DR11); read-out: DRB1 *1101)	IC50 (HLA-DR DRB1*1302 (DR13); read-out: DRBI *1302)	IC50 (HLA-DR DRB3*0101 (DR52); read-out: DRB3 *0101)	IC50 (HLA-DR DRB4*0101 (DR53); read-out: DRB4 *0101)	IC50 (HLA-DR DRB5*0101 (DR51); read-out: DRB5 *0101)	IC50 (HLA-DR DRB1*1501 (DR15); read-out: DRBI *1501)	IC50 (HLA-DR DRB3*0101 (DR52))	further results
VAQVRGGNIVFELANS	> 50 µM	2.8 µM	> 21.9 µM	0.1 µM	64.4 µM	–	–	–
TAWTIYRVEILRNFY	5.05 µM	0.072 µM	14.4 µM	0.026 µM	0.518 µM	–	–	–
DSSLEGNYTLRVDCT	> 50 µM	0.0076 µM	0.576 µM	–	16.8 µM	1.2 µM	–	–
GAGPKDNGGACGYKDVDKAP	–	–	–	–	–	–	> 20 µM	IC50 (HLA-DR DRB1*0301 (DR3)): > 30 µM; IC50 (HLA-DR DRB1*0401 (DR4)): > 0.667 µM; IC50 (HLA-DR DRB1*0701 (DR7)): > 12.5 µM
IAKVPPGPNITAEYGDKWLD	–	–	–	–	–	–	> 20 µM	IC50 (HLA-DR DRB1*0301 (DR3)): > 30 µM; IC50 (HLA-DR DRB1*0401 (DR4)): > 0.667 µM; IC50 (HLA-DR DRB1*0701 (DR7)): > 12.5 µM
FPTIPLSRLFDNAML	46.4 µM	9.31 µM	121 µM	–	–	2.77 µM	–	–
HQAISPRTLNSPAIF	33.7 µM	–	> 83.3 µM	0.13 µM	> 200 µM	8.11 µM	–	–
QAKKEKLNIWSEDNADSGQ	–	–	–	–	–	–	> 5.56 µM	IC50 (HLA-DR DRB1*0301 (DR3)): > 900 µM; IC50 (HLA-DR DRB1*0701 (DR7)): > 250 µM
FAGIRRDGLLLRIVD	–	–	0.553 µM	–	–	0.028 µM	–	–
YGRILHYLKAKEDSH [YORILHYLKAKBDSH]	–	–	–	–	–	–	455 µM	IC50 (HLA-DR DRB1*1101 (DR11); DRB1 *1101): 0.812 µM; IC50 (HLA-DR DRB1*1302 (DR13); DRBI *1302): 2.78 µM; IC50 (HLA-DR DRB1*1501 (DR15); DRBI *1501): 0.016 µM; IC50 (HLA-DR DRB4*0101 (DR53); DRB4 *0101): 0.14 µM; IC50 (HLA-DR DRB5*0101 (DR51); DRB5 *0101): 0.039 µM
MTNLAALFPPEGVSI	141 µM	–	> 8.83 µM	4.61 µM	141 µM	–	–	–
KPAVYTKVVHYRKWI	–	–	7.19 µM	–	0.023 µM	0.401 µM	–	–
SAAPLRTITADTFRK [SAAPLRT1TADTFRK]	–	–	–	–	–	–	2.11 µM	IC50 (HLA-DR DRB1*1101 (DR11); DRB1 *1101): 3.88 µM; IC50 (HLA-DR DRB1*1302 (DR13); DRBI *1302): 0.809 µM; IC50 (HLA-DR DRB1*1501 (DR15); DRBI *1501): 0.858 µM; IC50 (HLA-DR DRB4*0101 (DR53); DRB4 *0101): 0.017 µM; IC50 (HLA-DR DRB5*0101 (DR51); DRB5 *0101): 0.045 µM
LPSWATEDTMTKIRE	> 66.7 µM	> 35 µM	5.97 µM	> 11.1 µM	–	> 45.5 µM	–	–
CC[C@H](C)[C@H](NC(=O)[C@H](Cc1ccccc1)NC(=O)[C@H](C)NC(=O)[C@H](CCCNC(=N)N)NC(=O)[C@H](CCC(=O)O)NC(=O)[C@H](CC(C)C)NC(=O)[C@H](Cc1ccccc1)NC(=O)[C@H](CCSC)NC(=O)[C@H](CC(C)C)NC(=O)[C@H](CCC(N)=O)NC(=O)[C@@H](N)CC(=O)O)C(=O)N[C@@H](CC(=O)O)C(=O)N1CCC[C@H]1C(=O)N[C@@H](CC(C)C)C(=O)NCC(=O)O	–	–	–	–	–	–	17.1 µM	IC50 (HLA-DR DRB1*0301 (DR3)): > 19.7 µM; IC50 (HLA-DR DRB4*0101 (DR53); DRB4 *0101): 0.0066 µM
RLFDNAMLRAHRLHQ	–	0.738 µM	> 270 µM	1.63 µM	0.058 µM	0.018 µM	–	–
AWYAWRNRCK	> 5 µM	–	> 11.1 µM	–	0.044 µM	–	–	–

Molecule	IC50 (HLA-DR DRB1*1101 (DR11); read-out: DRB1 *1101)	IC50 (HLA-DR DRB1*1302 (DR13); read-out: DRBI *1302)	IC50 (HLA-DR DRB3*0101 (DR52); read-out: DRB3 *0101)	IC50 (HLA-DR DRB4*0101 (DR53); read-out: DRB4 *0101)	IC50 (HLA-DR DRB5*0101 (DR51); read-out: DRB5 *0101)	IC50 (HLA-DR DRB1*1501 (DR15); read-out: DRBI *1501)	IC50 (HLA-DR DRB3*0101 (DR52))	further results
DDYVKQYTKQYTKQNTLKK	–	–	–	–	–	–	> 11.1 µM	IC50 (HLA-DR DRB1*0401 (DR4)): 0.16 µM; IC50 (HLA-DR DRB1*1101 (DR11); DRB1 *1101): > 1.11 µM; IC50 (HLA-DR DRB5*0101 (DR51); DRB5 *0101): 0.035 µM
Ac-NPDAENWNSQFEILEDAA	–	–	–	–	–	–	1 µM	IC50 (HLA-DR DRB1*1101 (DR11); DRB1 *1101): > 33.3 µM; IC50 (HLA-DR DRB1*1302 (DR13); DRBI *1302): > 10 µM; IC50 (HLA-DR DRB1*1501 (DR15); DRBI *1501): > 10 µM; IC50 (HLA-DR DRB5*0101 (DR51); DRB5 *0101): 50 µM
AVGLPSIPVHPIGYY	33.3 µM	–	> 11.8 µM	5.39 µM	38.5 µM	0.518 µM	–	–
AKSTWYGKPTGAGPKDNGGA	–	–	–	–	–	–	> 20 µM	IC50 (HLA-DR DRB1*0301 (DR3)): > 30 µM; IC50 (HLA-DR DRB1*0701 (DR7)): > 12.5 µM; IC50 (HLA-DR DRB4*0101 (DR53); DRB4 *0101): 10 µM
CC[C@H](C)[C@H](NC(=O)[C@@H](NC(=O)[C@@H]1CCCN1C(=O)CN)C(C)C)C(=O)N1CCC[C@H]1C(=O)N[C@@H](CCC(N)=O)C(=O)N[C@@H](CC(=O)O)C(=O)N[C@@H](Cc1c[nH]c2ccccc12)C(=O)N[C@@H](CO)C(=O)N[C@H](C(=O)N[C@@H](CCC(=O)O)C(=O)N[C@@H](CS)C(=O)N[C@@H](CCSC)C(=O)N[C@H](C(=O)N[C@H](C(=O)O)[C@@H](C)O)[C@@H](C)O)[C@@H](C)O	–	–	–	–	–	–	20.3 µM	IC50 (HLA-DR DRB1*0301 (DR3)): 52.1 µM; IC50 (HLA-DR DRB4*0101 (DR53); DRB4 *0101): 0.961 µM
TLERPKTLSPGKNGV	> 52.6 µM	0.835 µM	> 263 µM	25.7 µM	11.3 µM	23.3 µM	–	–
VRYTTEGGTKSEVEDVIPEG	–	–	–	–	–	–	> 25 µM	IC50 (HLA-DR DRB1*0301 (DR3)): > 30 µM; IC50 (HLA-DR DRB1*0401 (DR4)): > 0.667 µM; IC50 (HLA-DR DRB1*0701 (DR7)): > 12.5 µM
YLVTGERGFFYTKPT	–	–	9.57 µM	27.9 µM	–	> 21 µM	–	–
MSAMTALAALFPPEG	> 200 µM	–	7.16 µM	–	63.2 µM	–	–	–
TAEYGDKWLDAKSTWYGKPT	–	–	–	–	–	–	> 20 µM	IC50 (HLA-DR DRB1*0301 (DR3)): > 30 µM; IC50 (HLA-DR DRB1*0401 (DR4)): > 0.667 µM; IC50 (HLA-DR DRB1*0701 (DR7)): 3.13 µM; IC50 (HLA-DR DRB4*0101 (DR53); DRB4 *0101): 10 µM
VRVEILRNFYVINRL	0.504 µM	0.0058 µM	80.4 µM	0.187 µM	0.485 µM	0.00104 µM	–	–
YLVCGERGFFYTKPT	–	–	–	–	–	–	12.8 µM	IC50 (HLA-DR DRB1*1101 (DR11); DRB1 *1101): > 60.6 µM; IC50 (HLA-DR DRB1*1302 (DR13); DRBI *1302): 3.47 µM; IC50 (HLA-DR DRB1*1501 (DR15); DRBI *1501): > 25.6 µM; IC50 (HLA-DR DRB4*0101 (DR53); DRB4 *0101): 40.4 µM; IC50 (HLA-DR DRB5*0101 (DR51); DRB5 *0101): > 28.4 µM
GGVLVNEILNHMKRA	0.255 µM	0.049 µM	8.12 µM	0.0058 µM	0.0087 µM	0.576 µM	–	–
FVNQHLTGSHLVEAL	> 10.5 µM	–	94.5 µM	–	> 43.3 µM	0.799 µM	–	–
LGFLQRSSNTQTQKL	26.2 µM	0.021 µM	> 1750 µM	–	0.339 µM	–	–	–
VGGVYLLPRRGPRIGV	0.088 µM	> 15.4 µM	60.8 µM	19.2 µM	0.012 µM	0.0042 µM	–	–
TPDKLTGPFTVRYTTEGGTK	–	–	–	–	–	–	> 25 µM	IC50 (HLA-DR DRB1*0301 (DR3)): > 900 µM; IC50 (HLA-DR DRB1*0401 (DR4)): > 0.667 µM; IC50 (HLA-DR DRB1*0701 (DR7)): > 12.5 µM
